Measurements published in PubChem BioAssay (NCI).
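96-well plates; 48 h exposure; 5 concentrations. Endpoints by linear interpolation between flanking doses. Not reached: highest tested concentration assigned. GI50 = concentration required for 50% inhibition of growth. TGI is the concentration that stops growth completely.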

What was measured:
Assay in all cases: NCI-60 cell line screen, 48 h
MALME-3M melanoma = system: MALME-3M melanoma
SK-OV-3 ovarian = system: SK-OV-3 ovarian
K-562 leukemia = system: K-562 leukemia
HOP-62 NSCLC = system: HOP-62 NSCLC
CCRF-CEM leukemia = system: CCRF-CEM leukemia
HCC-2998 colon = system: HCC-2998 colon
UACC-257 melanoma = system: UACC-257 melanoma
UACC-62 melanoma = system: UACC-62 melanoma
RXF 393 renal = system: RXF 393 renal
HS 578T breast = system: HS 578T breast

Compound | TGI (MALME-3M melanoma) | TGI (SK-OV-3 ovarian) | TGI (K-562 leukemia) | TGI (HOP-62 NSCLC) | TGI (CCRF-CEM leukemia) | TGI (HCC-2998 colon) | TGI (UACC-257 melanoma) | TGI (UACC-62 melanoma) | GI50 (MALME-3M melanoma) | GI50 (SK-OV-3 ovarian) | GI50 (K-562 leukemia) | GI50 (HOP-62 NSCLC) | GI50 (CCRF-CEM leukemia) | GI50 (HCC-2998 colon) | GI50 (UACC-257 melanoma) | GI50 (RXF 393 renal) | TGI (RXF 393 renal) | GI50 (UACC-62 melanoma) | TGI (HS 578T breast) | GI50 (HS 578T breast)
CCCCC1CC(c2cccc([N+](=O)[O-])c2)=NO1 (centres undefined) | > 100 µM | > 100 µM | > 100 µM | > 100 µM | > 100 µM | > 100 µM | > 100 µM | > 100 µM |  |  |  |  |  |  |  |  |  |  |  | 
O=C(c1ccc2ccccc2c1)c1c(C(F)(F)F)n([O-])c2cc(F)c(F)cc2[n+]1=O | 2.65 µM | 27.9 µM | 1.44 µM | 16.8 µM | 3.63 µM | 7.65 µM | 6.45 µM | 6.62 µM | 1.13 µM | 14.5 µM | 0.314 µM | 5.02 µM | 1.33 µM | 2.42 µM | 2.53 µM | 1.49 µM | 2.97 µM | 2.75 µM |  | 
CN(C)c1ccc([O-])cc1.CN(C)c1ccc([O-])cc1.CN(C)c1ccc([O-])cc1.CN(C)c1ccc([O-])cc1.[Ti+4] | > 100 µM | > 100 µM | > 100 µM | > 100 µM | > 100 µM |  | > 100 µM | > 100 µM | > 100 µM | > 100 µM | 37.9 µM | > 100 µM | 43.7 µM |  | > 100 µM | 59 µM | > 100 µM | > 100 µM |  | 
CCOC(=O)C1=C(c2ccccc2)N(C)c2ccccc2S1 | > 100 µM | > 100 µM | > 100 µM | > 100 µM | > 100 µM |  | 86.1 µM | 53.2 µM |  |  |  |  |  |  |  |  |  |  | 72.3 µM | 
O=C(Nc1cccc([N+](=O)[O-])c1)C(=O)C(C(=O)c1ccccc1-c1ccccc1)C1OC(=O)c2ccccc21 (centres undefined) | 34.5 µM | > 100 µM | > 100 µM | 33.9 µM | 99 µM | 30.5 µM | 93.4 µM | 45.7 µM |  |  |  |  |  |  |  |  | 28.5 µM |  |  | 
CC1OC(OCC2OC(Oc3c(-c4ccc(O)cc4)oc4cc(O)cc(O)c4c3=O)C(OC3OC(C)C(O)C(O)C3O)C(O)C2O)C(O)C(O)C1O (centres undefined) | > 100 µM | > 100 µM | > 31.6 µM | > 100 µM | > 83.5 µM | > 100 µM | > 100 µM | > 100 µM |  |  |  |  |  |  |  |  | > 100 µM |  |  | 
COc1ccc(NC(=O)C(=O)Cc2nc3ccc([N+](=O)[O-])cc3[nH]c2=O)c(OC)c1 | > 100 µM | > 100 µM | > 100 µM |  | > 100 µM | > 100 µM | > 100 µM | > 100 µM |  |  |  |  |  |  |  |  | > 100 µM |  |  | 
NC1CCCCC1.[O]=[Ge].[O]=[Ge].[O]=[Ge][OH].[O]=[Ge][OH] | > 100 µM |  | > 100 µM | > 100 µM | > 100 µM | > 100 µM | > 100 µM | > 100 µM |  |  |  |  |  |  |  |  | > 100 µM |  |  | 
OC1c2ccccc2C2(O)C1C(c1ccccc1)C(c1ccccc1)C2(O)c1ccccc1 (centres undefined) | 26.9 µM | 64 µM | 50 µM | 28.2 µM | > 100 µM | 28.6 µM | 29.7 µM | 28.4 µM |  |  |  |  |  |  |  |  | 76.2 µM |  |  | 
COC(=O)C1C(O)CC(c2ccccn2)N(Cc2ccccc2)C1c1ccccn1 (centres undefined) | > 100 µM | > 100 µM | > 100 µM | > 100 µM | > 100 µM | > 100 µM | > 100 µM | > 100 µM |  |  |  |  |  |  |  |  | > 100 µM |  |  | 
Cn1nc(-c2ccccc2)c(C(=O)/C=C/c2ccc(F)cc2)c(N2CCCCC2)c1=O |  | 70.1 µM | 13 µM |  | 6.46 µM |  |  | 30 µM |  |  |  |  |  |  |  |  | 9.86 µM |  |  | 
CCCCc1c2c(nc3c1CCc1cc4cc5c(nc4nc1-3)-c1nc3c(c(CCCC)c1CC5)CCCC3)CCCC2 | > 100 µM | > 100 µM | > 100 µM | > 100 µM | > 100 µM | > 100 µM | > 100 µM | 52 µM |  |  |  |  |  |  |  |  | 71.4 µM |  |  | 
CCc1cccc(C(C)C)c1NC(=O)C(=O)CC(=O)c1c(C)n([O-])c2ccccc2[n+]1=O | > 100 µM | > 100 µM | > 100 µM | > 100 µM | > 100 µM | > 100 µM |  | > 100 µM |  |  |  |  |  |  |  |  | > 100 µM |  |  | 
Cc1ccc(S(=O)(=O)NCCNC2=CC(=O)c3nc4ccccc4c4ccnc2c34)cc1 | 54.5 µM | > 100 µM | > 100 µM | 61.3 µM |  |  | 54.3 µM | 44.5 µM | 20.5 µM | 33.1 µM | 25 µM | 20.6 µM |  |  | 19.5 µM |  |  | 20.6 µM | 79.9 µM | 27 µM
O=C(O)COc1ccc(O)c2c1C(=O)CCCC2=O | > 100 µM | > 100 µM | > 100 µM | > 100 µM | > 100 µM | > 100 µM | > 100 µM | > 100 µM |  |  |  |  |  |  |  |  |  |  |  | 
O=Cc1ccccc1OCCOc1cc(OCCOc2ccccc2C=O)c(OCCOc2ccccc2C=O)cc1OCCOc1ccccc1C=O | > 100 µM | > 100 µM | > 100 µM | > 100 µM | > 100 µM | > 100 µM | > 100 µM | > 100 µM |  |  |  |  |  |  |  |  | > 100 µM |  |  | 
CC1(C)C(=O)C(C)(C)C1=NN | > 100 µM | > 100 µM | > 100 µM | > 100 µM |  | > 100 µM | > 100 µM | > 100 µM |  |  |  |  |  |  |  |  | > 100 µM |  |  | 
OCCCOC(c1ccccc1)(c1ccccc1)c1ccccc1 | > 100 µM | > 100 µM | > 100 µM | > 100 µM | > 100 µM | > 100 µM | > 100 µM | > 100 µM |  |  |  |  |  |  |  |  |  |  |  | 
O=C(O)[C@@H]1[C@H](C(=O)O)[C@H](C(=O)O)C[C@@H]1C(=O)O | > 100 µM | > 100 µM | > 100 µM | > 100 µM |  |  | > 100 µM | > 100 µM |  |  |  |  |  |  |  |  | > 100 µM |  | > 100 µM | 
CC(=O)NNc1nc(C)c(C(=O)NNC(=O)C(=O)Nc2c(C)cccc2C)s1 | > 100 µM | > 100 µM | > 100 µM | > 100 µM | 81.7 µM | > 100 µM | > 100 µM | > 100 µM |  |  |  |  |  |  |  |  | 88.2 µM |  |  | 
CCCn1c(SC)nc(COC(=O)NC)c1COC(=O)NC |  | > 100 µM | > 100 µM | > 100 µM | > 100 µM |  | > 100 µM | > 100 µM |  |  |  |  |  |  |  |  |  |  | > 100 µM | 
O=C(c1ccccc1)C1CCCCN1C(=O)c1ccccc1 (centres undefined) | > 100 µM | > 100 µM | > 100 µM | > 100 µM | > 100 µM | > 100 µM | > 100 µM | > 100 µM |  |  |  |  |  |  |  |  | > 100 µM |  |  | 
